Test results as given in paper PMC10537368, “Design, Synthesis, and Biological Evaluation of Novel 3-Cyanopyridone/Pyrazoline Hybrids as Potential Apoptotic Antiproliferative Agents Targeting EGFR/BRAF^V600E Inhibitory Pathways” (Molecules, 2023).
Values joined by “and” are separate entries in the source; they are usually repeats but may differ in a detail not shown here. Equal entries are not always repeated. Where two headings read alike, the source gives them in different places.

Assays:
[1] = Cell viability MTT assay on MCF-10A normal cells; assay type: cell-based; conditions: human, MCF-10A mammary gland epithelial normal cells, MCF-10A cells, four days of incubation
Description: The viability of new compounds 21–30 was examined using the human mammary gland epithelial (MCF-10A) cell line. The cell viability of compounds 21–30 was assessed using the MTT assay after four days of incubation on MCF-10A cells.
The human mammary gland epithelial (MCF-10A) normal cell line was utilized to investigate the viability of new derivatives 21–30 [56]. For more information, see Supplementary Materials Files.

[2] = system: lung cancer (A-549) cell line; test: Antiproliferative MTT assay, A-549; assay type: cell-based; conditions: Homo sapiens, A549; A-549, MTT; read-out: Antiproliferative Activity IC50 ± SEM, A-549
Excerpt: (§1) The median inhibitory concentration (IC50) and GI50 [58]

[3] = system: pancreatic cancer (Panc-1) cell line; test: Antiproliferative MTT assay, Panc-1; assay type: cell-based; conditions: Homo sapiens; Panc-1, MTT; read-out: Antiproliferative Activity IC50 ± SEM, Panc-1
Excerpt: as §1

[4] = system: four human cancer cell lines (A-549, MCF-7, Panc-1, HT-29); test: Antiproliferative MTT assay, average over four cancer cell lines (GI50); assay type: cell-based; conditions: for IC50: Homo sapiens, average IC50 against the four cancer cell lines
[5] = system: colon cancer (HT-29) cell line; test: Antiproliferative MTT assay, HT-29; assay type: cell-based; conditions: Homo sapiens; HT-29, MTT; read-out: Antiproliferative Activity IC50 ± SEM, HT-29
Excerpt: as §1

[6] = system: breast cancer (MCF-7) cell line; test: Antiproliferative MTT assay, MCF-7; assay type: cell-based; conditions: Homo sapiens, MCF7; MCF-7, MTT; read-out: Antiproliferative Activity IC50 ± SEM, MCF-7
Excerpt: as §1

BRAF^V600E [7] = target: T1, BRAF^V600E (Homo sapiens, UniProt P15056, V600E); test: BRAF^V600E inhibitory assay; assay type: biochemical; conditions: read-out: BRAF^V600E Inhibition IC50 ± SEM
EGFR [8] = target: T2, EGFR (Homo sapiens, UniProt P00533); test: EGFR inhibitory assay; conditions: for fold more potent than the reference Erlotinib (EGFR IC50): IC50 ratio vs Erlotinib
A-549 cancer = system: A-549 cancer; parameters: method as in PMID 37240450; conditions: read-out: IC50 against A-549 cancer; cited from earlier work
Panc-1 cancer = system: Panc-1 cancer; parameters: method as in PMID 36526595; conditions: read-out: IC50 against Panc-1 cancer; cited from earlier work
BRAF^V600E [9] = target: T1, BRAF^V600E; conditions: cited from earlier work
EGFR [10] = target: T2, EGFR; conditions: read-out: EGFR inhibition IC50; cited from earlier work
[11] = system: Caspase-3 in human epithelial cancer cell line (A-594); test: Caspase 3 activation assay; assay type: cell-based; conditions: for Caspase-3 Fold Change: A-594, vs untreated control cells; for Caspase-3 Conc: A-594 cell line
Excerpt: Caspases are essential for the induction and maintenance of apoptosis. Caspase-3 is an important caspase that cleaves several cell proteins, causing apoptosis.
See Supplementary Materials Files.

[12] = system: Bcl-2 in A-594 cancer cell line; test: Bcl-2 level assay; assay type: cell-based, human; conditions: for Bcl-2 Fold Reduction: A-594, vs untreated control; for Bcl-2 Conc: A-594 cell line
Excerpt: […]. […]. Compared to the untreated control cell, compounds 28 and 30 elevated caspase-8 levels by 25- and 28-fold, respectively.
[…]. Compounds 21, 28, and 30 were investigated as caspase-3, caspase-8, Bax activators, and Bcl-2 down-regulators against the human epithelial cancer cell line (A-594). See Supplementary Materials Files.

[13] = system: Caspase-8 in A-594 cancer cell line; test: Caspase-8 level assay; assay type: cell-based, human; conditions: for Caspase-8 Fold Change: A-594, vs untreated control; for Caspase-8 Conc: A-594 cell line
[14] = system: Bax in A-594 cancer cell line; test: Bax level assay; assay type: cell-based, human; conditions: for Bax Fold Change: A-594, vs untreated control; for Bax Conc: A-594 cell line

T1 sequence (P15056 whole entry V600E): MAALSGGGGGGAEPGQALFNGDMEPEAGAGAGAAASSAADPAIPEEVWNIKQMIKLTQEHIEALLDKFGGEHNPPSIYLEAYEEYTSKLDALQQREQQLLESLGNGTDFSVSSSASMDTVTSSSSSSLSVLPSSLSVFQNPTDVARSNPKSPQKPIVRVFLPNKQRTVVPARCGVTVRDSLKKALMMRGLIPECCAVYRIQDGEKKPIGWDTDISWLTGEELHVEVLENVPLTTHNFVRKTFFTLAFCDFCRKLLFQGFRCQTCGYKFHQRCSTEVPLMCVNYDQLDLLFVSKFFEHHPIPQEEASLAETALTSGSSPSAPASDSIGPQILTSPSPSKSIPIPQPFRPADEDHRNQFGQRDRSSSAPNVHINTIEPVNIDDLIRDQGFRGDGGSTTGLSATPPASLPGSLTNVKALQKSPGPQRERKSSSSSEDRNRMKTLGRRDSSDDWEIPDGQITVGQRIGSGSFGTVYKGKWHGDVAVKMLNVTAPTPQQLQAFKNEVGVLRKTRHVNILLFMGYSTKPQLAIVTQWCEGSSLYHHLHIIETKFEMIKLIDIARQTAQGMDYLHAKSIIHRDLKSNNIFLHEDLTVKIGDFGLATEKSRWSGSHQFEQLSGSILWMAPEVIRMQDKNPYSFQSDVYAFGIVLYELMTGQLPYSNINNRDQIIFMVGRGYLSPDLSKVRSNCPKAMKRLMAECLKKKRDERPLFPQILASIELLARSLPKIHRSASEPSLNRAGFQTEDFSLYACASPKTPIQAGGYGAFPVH
T2 sequence (P00533 25-1210): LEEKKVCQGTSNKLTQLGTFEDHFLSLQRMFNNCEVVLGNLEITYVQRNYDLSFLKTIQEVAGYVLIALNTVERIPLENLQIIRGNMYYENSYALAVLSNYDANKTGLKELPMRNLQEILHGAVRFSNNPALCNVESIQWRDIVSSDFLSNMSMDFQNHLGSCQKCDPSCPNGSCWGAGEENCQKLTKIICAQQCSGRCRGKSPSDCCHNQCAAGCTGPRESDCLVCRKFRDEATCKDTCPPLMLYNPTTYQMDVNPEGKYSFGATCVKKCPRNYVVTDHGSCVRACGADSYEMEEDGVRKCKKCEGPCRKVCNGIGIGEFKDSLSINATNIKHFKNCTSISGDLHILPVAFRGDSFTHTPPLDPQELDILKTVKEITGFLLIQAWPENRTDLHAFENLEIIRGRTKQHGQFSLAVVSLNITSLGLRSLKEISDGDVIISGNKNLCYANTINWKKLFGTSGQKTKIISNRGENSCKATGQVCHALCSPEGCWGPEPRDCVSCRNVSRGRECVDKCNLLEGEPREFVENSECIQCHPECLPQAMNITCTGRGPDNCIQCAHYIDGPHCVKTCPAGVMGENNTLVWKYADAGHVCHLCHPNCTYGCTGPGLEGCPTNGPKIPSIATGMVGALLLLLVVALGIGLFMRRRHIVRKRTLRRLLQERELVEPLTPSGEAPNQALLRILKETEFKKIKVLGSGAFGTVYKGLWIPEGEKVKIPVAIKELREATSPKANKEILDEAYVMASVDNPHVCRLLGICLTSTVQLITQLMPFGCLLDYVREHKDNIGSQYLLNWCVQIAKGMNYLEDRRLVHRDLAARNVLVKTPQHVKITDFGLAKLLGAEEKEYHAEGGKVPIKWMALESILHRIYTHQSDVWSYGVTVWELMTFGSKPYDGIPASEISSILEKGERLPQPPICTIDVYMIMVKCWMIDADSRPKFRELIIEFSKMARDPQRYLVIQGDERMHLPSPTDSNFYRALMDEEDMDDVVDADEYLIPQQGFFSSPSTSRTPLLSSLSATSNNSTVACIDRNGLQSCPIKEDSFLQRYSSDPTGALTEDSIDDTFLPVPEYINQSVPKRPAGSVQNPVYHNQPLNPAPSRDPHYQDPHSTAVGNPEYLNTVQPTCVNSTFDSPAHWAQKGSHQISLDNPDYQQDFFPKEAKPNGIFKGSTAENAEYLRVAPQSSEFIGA

IC50 [2] [µM]	IC50 [3] [µM]	IC50 [4] [µM]	IC50 [5] [µM]	IC50 [6] [µM]	IC50 (BRAF^V600E [7])	IC50 (EGFR [8]) [µM]	Compound	viability at 4 days, 50 µM [1] [%]	also measured
0.029 ± 0.002	0.032 ± 0.003	0.032	0.032 ± 0.003	0.034 ± 0.003	–	–	N#Cc1c(-c2ccc(Cl)cc2)cc(-c2ccc(Cl)cc2)n(CC(=O)Nc2ccc(C3=NNC(c4ccc(Cl)cc4)C3)cc2)c1=O (centres unmarked) [Compound 23, 2-(3-Cyano-4,6-bis(4-chlorophenyl)-2-oxopyridin-1(2H)-yl)-N-(4-(5-(4-chlorophenyl)-4,5-dihydro-1H-pyrazol-3-yl)phenyl)acetamide]	91	–
0.027 ± 0.002	0.029 ± 0.002	0.029	0.028 ± 0.002	0.031 ± 0.003	0.077 ± 0.006 µM	0.073 ± 0.005	COc1ccc(-c2cc(-c3ccc(OC)c(OC)c3)c(C#N)c(=O)n2CC(=O)Nc2ccc(C3=NNC(c4ccc(OC)c(OC)c4)C3)cc2)cc1 (centres unmarked) [Compound 24, 2-(3-Cyano-4-(3,4-dimethoxyphenyl)-6-(4-methoxyphenyl)-2-oxopyridin-1(2H)-yl)-N-(4-(5-(3,4-dimethoxyphenyl)-4,5-dihydro-1H-pyrazol-3-yl)phenyl)acetamide]	90	–
0.036 ± 0.003	0.038 ± 0.003	0.038	0.038 ± 0.003	0.042 ± 0.004	–	–	N#Cc1c(-c2ccc(Cl)cc2)cc(-c2ccc(Cl)cc2)n(CC(=O)Nc2ccc(C3=NNC(c4ccc(Cl)cc4Cl)C3)cc2)c1=O (centres unmarked) [Compound 27, 2-(3-Cyano-4,6-bis(4-chlorophenyl)-2-oxopyridin-1(2H)-yl)-N-(4-(5-(2,4-dichlorophenyl)-4,5-dihydro-1H-pyrazol-3-yl)phenyl)acetamide]	88	–
–	–	–	–	–	–	–	COc1cccc2c1C(=O)c1c(O)c3c(c(O)c1C2=O)C[C@@](O)(C(=O)CO)C[C@@H]3O[C@H]1C[C@H](N)[C@H](O)[C@H](C)O1 [doxorubicin]	–	IC50 (A-549 cancer): 1.4 µM; IC50 (Panc-1 cancer): 1 µM
0.035 ± 0.003	0.036 ± 0.003	0.037	0.036 ± 0.003	0.04 ± 0.004	–	–	Cc1ccc(C2CC(c3ccc(NC(=O)Cn4c(-c5ccc(Cl)cc5)cc(-c5ccc(Cl)cc5)c(C#N)c4=O)cc3)=NN2)c(C)c1 (centres unmarked) [Compound 26, 2-(3-Cyano-4,6-bis(4-chlorophenyl)-2-oxopyridin-1(2H)-yl)-N-(4-(5-(2,4-dimethylphenyl)-4,5-dihydro-1H-pyrazol-3-yl)phenyl)acetamide]	92	–
–	–	–	–	–	–	–	COc1ccc(/C=C/C(=O)c2ccc(NC(=O)Cn3c(-c4ccc(OC)c(OC)c4)cc(-c4ccc(OC)c(OC)c4)c(C#N)c3=O)cc2)cc1OC [Compound I]	–	IC50 (BRAF^V600E [9]; read-out: BRAF^V600E inhibition IC50): 0.065 µM; IC50 (EGFR [10]): 0.089 µM; IC50 (Panc-1 cancer): 0.8 µM
0.04 ± 0.003	0.042 ± 0.004	0.042	0.042 ± 0.004	0.045 ± 0.004	–	–	COc1ccc(C2CC(c3ccc(NC(=O)Cn4c(-c5ccc(Cl)cc5)cc(-c5ccc(Cl)cc5)c(C#N)c4=O)cc3)=NN2)cc1 (centres unmarked) [Compound 25, 2-(3-Cyano-4,6-bis(4-chlorophenyl)-2-oxopyridin-1(2H)-yl)-N-(4-(5-(4-methoxyphenyl)-4,5-dihydro-1H-pyrazol-3-yl)phenyl)acetamide]	88	–
–	–	–	–	–	–	–	COc1ccc(C2CC(c3ccc(OCC(=O)Nc4ccc(C5=NNC(c6ccc(OC)c(OC)c6)C5)cc4)cc3)=NN2)cc1 (centres unmarked) [Compound II]	–	IC50 (A-549 cancer): 1 µM; IC50 (BRAF^V600E [9]; read-out: BRAF^V600E IC50): 0.093 µM
–	–	–	–	–	–	–	CN[C@@H]1C[C@H]2O[C@@](C)([C@@H]1OC)n1c3ccccc3c3c4c(c5c6ccccc6n2c5c31)C(=O)NC4 [Staurosporine, reference compound]	–	Caspase-3 Fold Change [11]: 7 fold; Bcl-2 Fold Reduction [12]: 5 fold; Bcl-2 Conc [12]: 1.00 ng/mL; Caspase-8 Fold Change [13]: 21 fold; Bax Fold Change [14]: 32 fold
0.026 ± 0.002	0.028 ± 0.002	0.028	0.028 ± 0.002	0.03 ± 0.003	0.073 ± 0.006 µM	0.072 ± 0.005	N#Cc1c(-c2ccc(Cl)cc2)cc(-c2ccc(Cl)cc2)n(CC(=O)Nc2ccc(C3=NNC(c4ccccc4)C3)cc2)c1=O (centres unmarked) [Compound 21, 2-(3-Cyano-4,6-bis(4-chlorophenyl)-2-oxopyridin-1(2H)-yl)-N-(4-(5-phenyl-4,5-dihydro-1H-pyrazol-3-yl)phenyl)acetamide]	90	Caspase-3 Conc [11]: 530 ± 5 pg/mL
0.027 ± 0.002	0.03 ± 0.003	0.03	0.03 ± 0.003	0.031 ± 0.003	0.08 ± 0.007 µM	0.075 ± 0.005	COc1ccc(C2CC(c3ccc(NC(=O)Cn4c(-c5ccc(Cl)cc5)cc(-c5ccc(Cl)cc5)c(C#N)c4=O)cc3)=NN2)cc1OC (centres unmarked) [Compound 29, 2-(3-Cyano-4,6-bis(4-chlorophenyl)-2-oxopyridin-1(2H)-yl)-N-(4-(5-(3,4-dimethoxyphenyl)-4,5-dihydro-1H-pyrazol-3-yl)phenyl)acetamide]	91	–

Compound	IC50 [2] [µM]	IC50 [3] [µM]	IC50 [4] [µM]	IC50 [5] [µM]	IC50 [6] [µM]	IC50 (BRAF^V600E [7])	IC50 (EGFR [8]) [µM]	viability at 4 days, 50 µM [1] [%]	also measured
COc1ccc(C2CC(c3ccc(NC(=O)Cn4c(-c5ccc(OC)c(OC)c5)cc(-c5ccc(OC)c(OC)c5)c(C#N)c4=O)cc3)=NN2)cc1 (centres unmarked) [Compound 28, 2-(3-Cyano-4,6-bis(3,4-dimethoxyphenyl)-2-oxopyridin-1(2H)-yl)-N-(4-(5-(4-methoxyphenyl)-4,5-dihydro-1H-pyrazol-3-yl)phenyl)acetamide]	0.025 ± 0.002	0.026 ± 0.002	0.027	0.026 ± 0.002	0.03 ± 0.003	0.065 µM and 0.069 µM	0.07 ± 0.005	89	Caspase-3 Fold Change [11]: ~9 fold; Caspase-3 Conc [11]: 590 ± 5 pg/mL and 595 ± 5 pg/mL; Bcl-2 Fold Reduction [12]: 6 fold; Bcl-2 Conc [12]: 0.80 ng/mL; fold more potent than the reference Erlotinib (EGFR IC50) (EGFR [8]): 1.2 fold; Caspase-8 Fold Change [13]: 25 fold; Caspase-8 Conc [13]: 2.25 ng/mL; Bax Fold Change [14]: 36 fold; Bax Conc [14]: 325 pg/mL
COc1ccc(-c2cc(-c3ccc(OC)c(OC)c3)n(CC(=O)Nc3ccc(C4=NNC(c5ccccc5)C4)cc3)c(=O)c2C#N)cc1OC (centres unmarked) [Compound 22, 2-(3-Cyano-4,6-bis(3,4-dimethoxyphenyl)-2-oxopyridin-1(2H)-yl)-N-(4-(5-phenyl-4,5-dihydro-1H-pyrazol-3-yl)phenyl)acetamide]	0.032 ± 0.003	0.034 ± 0.003	0.033	0.032 ± 0.003	0.035 ± 0.003	–	–	89	fold less potent than compound 30 (GI50) ([4]; GI50 ratio vs compound 30): 1.3 fold
C#Cc1cccc(Nc2ncnc3cc(OCCOC)c(OCCOC)cc23)c1 [Erlotinib, reference compound]	0.03 ± 0.003	0.03 ± 0.003	–	0.03 ± 0.003	0.04 ± 0.003	–	–	–	–
COc1ccc(-c2cc(-c3ccc(OC)c(OC)c3)n(CC(=O)Nc3ccc(C4=NNC(c5ccc(OC)c(OC)c5)C4)cc3)c(=O)c2C#N)cc1OC (centres unmarked) [Compound 30, 2-(3-Cyano-4,6-bis(3,4-dimethoxyphenyl)-2-oxopyridin-1(2H)-yl)-N-(4-(5-(3,4-dimethoxyphenyl)-4,5-dihydro-1H-pyrazol-3-yl)phenyl)acetamide]	0.023 ± 0.002	0.024 ± 0.002	0.025	0.024 ± 0.002	0.028 ± 0.002	0.069 µM and 0.065 µM	0.068 ± 0.004	90	Caspase-3 Fold Change [11]: ~11 fold; Caspase-3 Conc [11]: 710 ± 6 pg/mL; Bcl-2 Fold Reduction [12]: 8 fold; Bcl-2 Conc [12]: 0.65 ng/mL; fold more potent than the reference Erlotinib (GI50) ([4]; GI50 ratio vs Erlotinib): 1.3 fold; fold more potent than the reference Erlotinib (EGFR IC50) (EGFR [8]): 1.2 fold; Caspase-8 Fold Change [13]: 28 fold; Caspase-8 Conc [13]: 2.50 ng/mL; Bax Fold Change [14]: 38 fold; Bax Conc [14]: 345 pg/mL
